# US9738634B2, “Heterocyclic amide compound and herbicide” (SYNGENTA PARTICIPATIONS AG, priority 2013, dated 2017)
# Legend:
# Format in all cases: in vivo
# wheat [1] = assay: Test Example 3: soil treatment, effect on crop; e: wheat; conditions: treatment dosage 315 g/ha
# Outline: (§1)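 Crop and weed responses were judged three weeks after a uniform surface spray of the water-diluted emulsion at the given g/ha rate. Seeds sat beneath about 1.5 cm of sterilized diluvial soil, and boxes stood in a greenhouse at 25 to 30° C.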
# bulrush [2] = assay: Test Example 2: weedkilling efficacy, growth period weed treatment in the submerged state; B: bulrush; conditions: treatment dosage 252 g/ha
# Outline: (§2)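 Barnyard grass, bulrush and oval-leafed pondweed sown in alluvial soil under 4 cm flooding, greenhouse 25 to 30° C. At 1-2 leaf stage, water-diluted emulsion applied to the water surface at stated g/ha dosages; effects scored 3 weeks later.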
# corn [3] = assay: Test Example 4: foliar treatment, effect on crop; c: corn; conditions: treatment dosage 315 g/ha
# Outline: (§3)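 Seeds are spot-sown into sterilized diluvial soil and covered with about 1.5 cm of soil. After 14 days' greenhouse growth at 25 to 30° C, plants are sprayed on stems and leaves with diluted emulsion at the stated g/ha rate, then scored at 3 weeks.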
# fig-leafed goosefoot [4] = assay: Test Example 3: weedkilling efficacy through soil treatment; M: fig-leafed goosefoot; conditions: treatment dosage 315 g/ha
# Outline: as §1
# redroot pigweed [5] = assay: Test Example 3: weedkilling efficacy through soil treatment; L: redroot pigweed; conditions: treatment dosage 315 g/ha
# Outline: as §1
# green foxtail [6] = assay: Test Example 4: weedkilling efficacy by foliar treatment; E: green foxtail; conditions: treatment dosage 315 g/ha
# Outline: as §3
# Indian mallow [7] = assay: Test Example 3: weedkilling efficacy through soil treatment; K: Indian mallow; conditions: treatment dosage 315 g/ha
# Outline: as §1
# birds-eye speedwell [8] = assay: Test Example 4: weedkilling efficacy by foliar treatment; p: birds-eye speedwell; conditions: treatment dosage 315 g/ha
# Outline: as §3
# black-grass [9] = assay: Test Example 4: weedkilling efficacy by foliar treatment; H: black-grass; conditions: treatment dosage 315 g/ha
# Outline: as §3
# oval-leafed pondweed [10] = assay: Test Example 2: weedkilling efficacy, growth period weed treatment in the submerged state; C: oval-leafed pondweed; conditions: treatment dosage 252 g/ha
# Outline: as §2
# chickweed [11] = assay: Test Example 3: weedkilling efficacy through soil treatment; N: chickweed; conditions: treatment dosage 315 g/ha
# Outline: as §1
# wheat [12] = assay: Test Example 4: foliar treatment, effect on crop; e: wheat; conditions: treatment dosage 315 g/ha
# Outline: as §3
# crabgrass [13] = assay: Test Example 4: weedkilling efficacy by foliar treatment; D: crabgrass; conditions: treatment dosage 315 g/ha
# Outline: as §3
# soybean [14] = assay: Test Example 3: soil treatment, effect on crop; d: soybean; conditions: treatment dosage 315 g/ha
# Outline: as §1
# barnyard grass [15] = assay: Test Example 1: weedkilling efficacy, preemergent weed treatment in the submerged state; A: barnyard grass; conditions: treatment dosage 252 g/ha
# Outline: (§4)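 Pots of alluvial soil flooded 4 cm deep, sown with barnyard grass, bulrush and oval-leafed pondweed and transplanted with 2.5-leaf rice. Emulsified compound applied to the water surface on sowing day at stated g/ha; greenhouse 25–30 °C, effects assessed 3 weeks after treatment.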
# beet [16] = assay: Test Example 3: soil treatment, effect on crop; f: beet; conditions: treatment dosage 315 g/ha
# Outline: as §1
# catchweed [17] = assay: Test Example 3: weedkilling efficacy through soil treatment; O: catchweed; conditions: treatment dosage 315 g/ha
# Outline: as §1
# crabgrass [18] = assay: Test Example 3: weedkilling efficacy through soil treatment; D: crabgrass; conditions: treatment dosage 315 g/ha
# Outline: as §1
# corn [19] = assay: Test Example 3: soil treatment, effect on crop; c: corn; conditions: treatment dosage 315 g/ha
# Outline: as §1
# soybean [20] = assay: Test Example 4: foliar treatment, effect on crop; d: soybean; conditions: treatment dosage 315 g/ha
# Outline: as §3
# directly sown rice [21] = assay: Test Example 4: foliar treatment, effect on crop; b: directly sown rice; conditions: treatment dosage 315 g/ha
# Outline: as §3
# Italian ryegrass [22] = assay: Test Example 3: weedkilling efficacy through soil treatment; I: Italian ryegrass; conditions: treatment dosage 315 g/ha
# Outline: as §1
# birds-eye speedwell [23] = assay: Test Example 3: weedkilling efficacy through soil treatment; p: birds-eye speedwell; conditions: treatment dosage 315 g/ha
# Outline: as §1
# Indian mallow [24] = assay: Test Example 4: weedkilling efficacy by foliar treatment; K: Indian mallow; conditions: treatment dosage 315 g/ha
# Outline: as §3
# chickweed [25] = assay: Test Example 4: weedkilling efficacy by foliar treatment; N: chickweed; conditions: treatment dosage 315 g/ha
# Outline: as §3
# black-grass [26] = assay: Test Example 3: weedkilling efficacy through soil treatment; H: black-grass; conditions: treatment dosage 315 g/ha
# Outline: as §1
# catchweed [27] = assay: Test Example 4: weedkilling efficacy by foliar treatment; O: catchweed; conditions: treatment dosage 315 g/ha
# Outline: as §3
# oval-leafed pondweed [28] = assay: Test Example 1: weedkilling efficacy, preemergent weed treatment in the submerged state; C: oval-leafed pondweed; conditions: treatment dosage 252 g/ha
# Outline: as §4
# fig-leafed goosefoot [29] = assay: Test Example 4: weedkilling efficacy by foliar treatment; M: fig-leafed goosefoot; conditions: treatment dosage 315 g/ha
# Outline: as §3
# barnyard grass [30] = assay: Test Example 2: weedkilling efficacy, growth period weed treatment in the submerged state; A: barnyard grass; conditions: treatment dosage 252 g/ha
# Outline: as §2
# redroot pigweed [31] = assay: Test Example 4: weedkilling efficacy by foliar treatment; L: redroot pigweed; conditions: treatment dosage 315 g/ha
# Outline: as §3
# bulrush [32] = assay: Test Example 1: weedkilling efficacy, preemergent weed treatment in the submerged state; B: bulrush; conditions: treatment dosage 252 g/ha
# Outline: as §4
# beet [33] = assay: Test Example 4: foliar treatment, effect on crop; f: beet; conditions: treatment dosage 315 g/ha
# Outline: as §3
# directly sown rice [34] = assay: Test Example 3: soil treatment, effect on crop; b: directly sown rice; conditions: treatment dosage 315 g/ha
# Outline: as §1
# Italian ryegrass [35] = assay: Test Example 4: weedkilling efficacy by foliar treatment; I: Italian ryegrass; conditions: treatment dosage 315 g/ha
# Outline: as §3
# transplanted rice = assay: Test Example 1: preemergent weed treatment in the submerged state, effect on crop; a: transplanted rice; conditions: treatment dosage 252 g/ha
# Outline: as §4
# green foxtail [36] = assay: Test Example 3: weedkilling efficacy through soil treatment; E: green foxtail; conditions: treatment dosage 315 g/ha
# Outline: as §1
structure (smiles),measurement,setting,value
CC1=C(c2ccc(Cl)s2)C(=O)N(C(C)(C)C(=O)Nc2cccc(Br)n2)CO1 [B-2-03],e (wheat) effect on crop grade,wheat [1],"1 (weed kill ratio 5% or more, less than 20%)"
same,B (bulrush) weedkilling efficacy grade,bulrush [2],"5 (weed kill ratio 90% or more, (practically complete withering))"
same,c (corn) effect on crop grade,corn [3],0 (weed kill ratio 5% or less (practically no effect))
same,M (fig-leafed goosefoot) weedkilling efficacy grade,fig-leafed goosefoot [4],0 (weed kill ratio 5% or less (practically no effect))
same,L (redroot pigweed) weedkilling efficacy grade,redroot pigweed [5],"3 (weed kill ratio 40% or more, less than 70%)"
same,E (green foxtail) weedkilling efficacy grade,green foxtail [6],"1 (weed kill ratio 5% or more, less than 20%)"
same,K (Indian mallow) weedkilling efficacy grade,Indian mallow [7],0 (weed kill ratio 5% or less (practically no effect))
same,P (birds-eye speedwell) weedkilling efficacy grade,birds-eye speedwell [8],"2 (weed kill ratio 20% or more, less than 40%)"
same,H (black-grass) weedkilling efficacy grade,black-grass [9],"3 (weed kill ratio 40% or more, less than 70%)"
same,C (oval-leafed pondweed) weedkilling efficacy grade,oval-leafed pondweed [10],"4 (weed kill ratio 70% or more, less than 90%)"
same,N (chickweed) weedkilling efficacy grade,chickweed [11],"4 (weed kill ratio 70% or more, less than 90%)"
same,e (wheat) effect on crop grade,wheat [12],0 (weed kill ratio 5% or less (practically no effect))
same,D (crabgrass) weedkilling efficacy grade,crabgrass [13],"3 (weed kill ratio 40% or more, less than 70%)"
same,d (soybean) effect on crop grade,soybean [14],0 (weed kill ratio 5% or less (practically no effect))
same,A (barnyard grass) weedkilling efficacy grade,barnyard grass [15],"5 (weed kill ratio 90% or more, (practically complete withering))"
same,f (beet) effect on crop grade,beet [16],0 (weed kill ratio 5% or less (practically no effect))
same,O (catchweed) weedkilling efficacy grade,catchweed [17],0 (weed kill ratio 5% or less (practically no effect))
same,D (crabgrass) weedkilling efficacy grade,crabgrass [18],"3 (weed kill ratio 40% or more, less than 70%)"
same,c (corn) effect on crop grade,corn [19],0 (weed kill ratio 5% or less (practically no effect))
same,d (soybean) effect on crop grade,soybean [20],"1 (weed kill ratio 5% or more, less than 20%)"
same,b (directly sown rice) effect on crop grade,directly sown rice [21],"1 (weed kill ratio 5% or more, less than 20%)"
same,I (Italian ryegrass) weedkilling efficacy grade,Italian ryegrass [22],"3 (weed kill ratio 40% or more, less than 70%)"
same,P (birds-eye speedwell) weedkilling efficacy grade,birds-eye speedwell [23],"4 (weed kill ratio 70% or more, less than 90%)"
same,K (Indian mallow) weedkilling efficacy grade,Indian mallow [24],0 (weed kill ratio 5% or less (practically no effect))
same,N (chickweed) weedkilling efficacy grade,chickweed [25],0 (weed kill ratio 5% or less (practically no effect))
same,H (black-grass) weedkilling efficacy grade,black-grass [26],"5 (weed kill ratio 90% or more, (practically complete withering))"
same,O (catchweed) weedkilling efficacy grade,catchweed [27],0 (weed kill ratio 5% or less (practically no effect))
same,C (oval-leafed pondweed) weedkilling efficacy grade,oval-leafed pondweed [28],"5 (weed kill ratio 90% or more, (practically complete withering))"
same,M (fig-leafed goosefoot) weedkilling efficacy grade,fig-leafed goosefoot [29],"3 (weed kill ratio 40% or more, less than 70%)"
same,A (barnyard grass) weedkilling efficacy grade,barnyard grass [30],"5 (weed kill ratio 90% or more, (practically complete withering))"
same,L (redroot pigweed) weedkilling efficacy grade,redroot pigweed [31],"1 (weed kill ratio 5% or more, less than 20%)"
same,B (bulrush) weedkilling efficacy grade,bulrush [32],"5 (weed kill ratio 90% or more, (practically complete withering))"
same,f (beet) effect on crop grade,beet [33],"1 (weed kill ratio 5% or more, less than 20%)"
same,b (directly sown rice) effect on crop grade,directly sown rice [34],"1 (weed kill ratio 5% or more, less than 20%)"
same,I (Italian ryegrass) weedkilling efficacy grade,Italian ryegrass [35],"3 (weed kill ratio 40% or more, less than 70%)"
same,a (transplanted rice) effect on crop grade,transplanted rice,0 (weed kill ratio 5% or less (practically no effect))
same,E (green foxtail) weedkilling efficacy grade,green foxtail [36],"3 (weed kill ratio 40% or more, less than 70%)"
